US6185453A, “Iontophoretic delivery of integrin inhibitors” (DuPont Pharmaceuticals Company, priority 1997, dated 2001)
Where “and” joins values, the source holds several entries; their conditions need not be identical. Identical values can stand only once. Counter-ions that a name gives are not always drawn.

Assays:
[1] = In vitro excised porcine skin iontophoretic delivery (flow-through diffusion cell); type: in vitro ADME; conditions: for Dose Delivered: 18 hours iontophoresis, 2 cm^2 patch
Description: The iontophoretic delivery of a representative GPIIb/IIIa inhibitor compound, Compound A, was carried out in a flow-through diffusion cell in vitro excised skin delivery system. The transdermal patch design used in these studies included an absorbent drug reservoir with 2 cm^2 active area of skin contact and a volume of 0.3 mL. The drug reservoir compartment was separated from the electrode compartment by a semi-permeable membrane with a molecular weight cutoff of 100. The electrode compartment included a silver […] and a cation exchange media in a hydrogel matrix. The drug reservoir compartment was filled with dosing solution just before application to the skin. A silver-silver chloride mesh return cathode was located upstream of the polycarbonate flow-through cells. Freshly dermatomed (1 mm) porcine skin was mounted in the cells on a porous support polyethylene. The patches included an absorbent reservoir in contact with silver and silver chloride electrodes. They were dosed with aqueous solutions of the drug and then placed on top of the excised skin. The patches were secured by a spring loaded mechanism which maintained even pressure over the patch. The cells were "perfused" by means of a peristaltic pump which pulls receiver solution through them. Effluents from the cells were collected with a fraction collector. Flow rates were typically 0.25 mL/min. The receiver solution was an isotonic pH 7.4 buffered saline solution containing 10 mM HEPES, 100 mM NaCl, PEG 400, and a surfactant, Pluronic P-103. Iontophoresis current was provided by a constant current power supplies, and the applied currents and cell voltages were recorded with a data logger. The flux profile vs. time and the cumulative dose delivered with 18 hours of iontophoresis were determined. This was followed by 3 hours where no current was applied. Concentrations of Compound A were determined using a radiolabeled marker or by HPLC. A study was performed using applied currents of 0-800 μA, and concentrations of Compound A in the patch of 50 or 100 mg/mL. Additional studies were performed using lower applied currents, lower concentrations of Compound A in the patch, and dosing solutions containing various concentrations of NaCl. […] At 100 μA the delivery rate of Compound A was approximately 10 μg/hr for the 2 cm^2 surface area, which was also within the targeted range. An alternative patch design, a monolithic patch rather than the membrane separated patch, was also tested. This patch is composed of two layers of absorbent material between which is sandwiched a silver anode.

[2] = In vivo swine iontophoretic delivery / IV infusion, plasma concentrations (LC-MS); design: species or system Yorkshire swine; conditions: for in vivo delivery rate: 10 mg/mL, by comparison with IV infusion of Compound B
Text: In each experiment, the patches were loaded with drug solution immediately before application to the skin of the animals. Unanesthetized Yorkshire swine with weights from about 20 to 35 kg were used. The skin sites receiving the patches were wiped clean with moist gauze pads. Patches were overwrapped with an adhesive, elastic wrap to hold the patches in place. Separate constant current power supplies were provided for each iontophoresis patch system. Current and voltage readings were made and recorded on-board dataloggers. Blood samples were withdrawn from the vena cava through an IV catheter into VACUTAINER™ blood collection tubes containing EDTA. After gentle mixing, the tubes were centrifuged to separate the plasma, which transferred to clean polypropylene tubes and frozen on dry ice. Frozen samples were stored at -80° C. until assayed.
Compound B concentrations in plasma were determined by LC-MS. The patches used were of the monolithic design described above, and having a 2 cm^2 skin coverage area. Patches were filled with solutions containing 10-20 mg/mL Compound A and 154 mM NaCl. […], plasma concentrations of Compound B increased for the first 5-8 hours of dosing and then reached steady-state.Steady-state plasma concentrations of approximately 1-2 ng/mL were attained. After an intravenous infusion of Compound B at 10 μg/hr, steady-state plasma concentrations of Compound B were also approximately 1-2 ng/mL. Therefore, the transdermal delivery rate at steady-state was approximately 10 μg/hr.
Pigs were also dosed with patches containing 10 mg/mL of Compound A, using currents of 50 and 100 μA. In these studies four patches were used for each pig, for a total skin coverage area of 8 cm^2. […] Actual in vivo delivery rates were estimated by comparison with plasma concentrations after intravenous infusion of Compound B. The 50 μA current delivered Compound A at approximately 25 μg/hr, and the 100 μA current delivered Compound A at approximately 40 μg/hr.

[3] = iontophoresis of 10 mg/mL Compound A, 50 and 100 μA, four patches (8 cm^2)

CCCCOC(=O)N[C@@H](CNC(=O)C[C@H]1CC(c2ccc(C(=N)N)cc2)=NO1)C(=O)OC [Compound A, methyl-N^3-[2-{3-(4-formamidinophenyl)-isoxazolin-5(R)-yl}-acetyl]-N^2-(n-butyloxycarbonyl)-2,3-(S)-diaminopropionate methanesulfonate salt]
skin permeation [1]: very low skin permeation | Dose Delivered ([1]; 0 μA, 100 mg/mL Compound A (as salt), methanesulfonate salt): 0.2 mg and 0.1 mg | transdermal delivery rates versus applied current ([1]; 10 mg/mL Compound A, 154 mM NaCl, 0, 25, 50, and 100 μA): proportional to the applied current | time to maximum delivery ([1]; 50 or 100 mg/mL Compound A, iontophoresis): about 5 hours | delivery rate ([1]; 100 μA, 10 mg/mL Compound A, 154 mM NaCl, 2 cm^2): approximately 10 μg/hr | Dose Delivered ([1]; 200 μA, 100 mg/mL Compound A (as salt), methanesulfonate salt): 1.2 mg and 1.1 mg and 1.0 mg | Dose Delivered ([1]; 400 μA, 50 mg/mL Compound A (as salt)): 1.1 mg | Dose Delivered ([1]; 800 μA, 50 mg/mL Compound A (as salt), methanesulfonate salt): 2.1 mg and 2.3 mg | variability in delivery from skin to skin ([1]; FIG. 2, 10 mg/mL, 154 mM NaCl, 50 μA): extremely low | in vitro delivery versus current ([1]; FIG. 3, 10 mg/mL, 9 mg/mL NaCl, 0-100 μA): proportional to increase in current | consistency of delivery ([1]; for any specified drug concentration and applied current): generally very consistent | transdermal delivery ([1]; in the presence of the applied current): greatly increased | delivery rates ([1]; when the current was turned off): very low levels | dosing rates ([1]; within the target range, 50 or 100 mg/mL Compound A): 5 to 250 µg/h | transdermal delivery rate at steady-state ([2]; 20 mg/mL Compound A, 100 μA, 2 cm^2, by comparison with IV infusion): approximately 10 μg/hr | blood levels, iontophoresis (FIG. 5) compared with constant IV infusion of Compound B (FIG. 4) ([2]; 20 mg/mL, 154 mM NaCl, 200 μA, 2 cm^2 vs IV 10 μg/h): similar | in vivo delivery rate ([2]; 50 μA, four patches (8 cm^2)): approximately 25 μg/hr | in vivo delivery rate ([2]; 100 μA, four patches (8 cm^2)): approximately 40 μg/hr | variability in plasma levels with iontophoresis ([2]; FIG. 5, 20 mg/mL, 154 mM NaCl, 200 μA, 2 cm^2): extremely low | in vivo conversion to acid form (Compound B) ([2]; in vivo): rapidly converted to its acid form

CCCCOC(=O)N[C@@H](CNC(=O)C[C@H]1CC(c2ccc(C(=N)N)cc2)=NO1)C(=O)O [Compound B, N^3-[2-{3-(4-formamidinophenyl)-isoxazolin-5(R)-yl}-acetyl]-N^2-(n-butyloxycarbonyl)-2,3-(S)-diaminopropanoic acid]
steady-state plasma concentrations ([2]; approximately, intravenous infusion of Compound B at 10 μg/hr): 1 to 2 ng/mL | period of plasma concentration increase before apparent steady-state [2, 3]: first several hours | plasma concentrations during 24 hours of iontophoretic dosing [2, 3]: fairly constant | plasma concentrations versus applied current [2, 3]: proportional to the applied current | time during which plasma concentrations increased before steady-state ([2]; iontophoresis of 20 mg/mL Compound A, 100 μA, 2 cm^2): 5 to 8 h
